The values below come from patent US20240018105A1, “TROPOLONE DERIVATIVES AND TAUTOMERS THEREOF FOR IRON REGULATION IN ANIMALS” (Kinesid Therapeutics, Inc., priority 2019, published 2024).

One data set can be described thus: Mouse 6-hour PK study. To be noted: in vivo. From the text: (§1) Compounds of the present disclosure were further evaluated in standard in vitro and in vivo Absorption, Distribution, Metabolism, Excretion (ADME) and Drug Metabolism and Pharmacokinetics (DMPK) assays to assess drug profiles important for further drug development.
(§2) Such assessments included human and mouse liver microsomal stability assays as well as 6-hour mouse PK studies.

Data set [1] concerns DMT1-deficient Caco-2 cells. Briefly: shDMT1-Caco2 55Fe transport assay. It counts as cell-based. Particulars: Caco-2. In a few lines: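 Transwell-differentiated (21–28 days) shDMT1 Caco-2 monolayers; apical serum-free DMEM/MES pH 6.5 with 200 nM 55Fe(III) plus compound, basolateral DMEM/HEPES/2% BSA pH 7.4, 37 °C. Basolateral 55Fe counted by scintillation; CPM over DMSO gives fc, and at 4 h fc at 3 µM is divided by hinokitiol's fc at 3 µM.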
(In general: Caco-2 cells form a polarised layer with tight junctions and transporters.)

The nature of data set [2]: Mouse liver microsomal stability assay. In kind it is in vitro ADME. To be noted: mouse, microsomes.
Source text: as §1, §2
On the technique in general: Liver microsomes are a subcellular fraction often used to study metabolism.

Data set [3] is described as follows: Human liver microsomal stability assay. In kind it is in vitro ADME. To be noted: human, microsomes.
Source text: as §1, §2

Data set [4] is described as follows: Ligand facilitated Fe(III) efflux from liposomes. Particulars: 10 uM ligand concentration; Table 1. In a few lines:
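POPC:cholesterol liposomes loaded with Fe(III)-citrate (pH 7.0), used at 1 mM phosphorus with 1 mM ferrozine outside. Ligand at 40–1.25 μM final, in triplicate; absorbance at 562 nm read every 60 s for 120 min. Efflux rate k from single-phase association fit, averaged over triplicates.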

Turning to `O=c1cccc(-c2cnc(C3CC3)nc2)cc1O` [Ex.37], in “Mouse 6-hour PK study”, the AUC(0-t) (in general, the area under the concentration-time curve up to a stated or last time point) lay within 1500 to 5000 ng·h/mL; the Cmax – broadly, the maximum level reached in the sampled fluid or tissue – was in the range of 500 to 1500 ng/mL; the half-life (as a rule, the time in which the quantity being followed falls by half) is 1.25 to 4.99 h; the “mouse 6-hour PK properties compared to hinokitiol” value is “one or more improved mouse 6-hour PK properties compared to hinokitiol”. Also, the “Caco2 shDMT1 transport FC @ 3 μM, 4h” value in data set [1] is reported as 0.01-0.5. Moreover, in data set [2], the half-life is greater than 2 h and the microsomal CLint (as a rule, the rate of metabolic loss divided by the concentration) was less than 11.6 µL/min/mg. In data set [3], this compound registered a half-life greater than 2 h and a microsomal CLint of less than 11.6 µL/min/mg. The “Liposome Fe transport kefflux at 10 10 μM” value in data set [4] is reported as 5-7.5.
For the compound `Cc1ncc(-c2cccc(=O)c(O)c2)cc1F` [Ex.57, 4-(5-fluoro-6-methylpyridin-3-yl)-2-hydroxycyclohepta-2,4,6-trien-1-one], in the data set “Mouse 6-hour PK study”, the AUC(0-t) lay in the range of 1500 to 5000 ng·h/mL, the Cmax was 500 to 1500 ng/mL, the half-life was in the range of 1.25 to 4.99 h and the “mouse 6-hour PK properties compared to hinokitiol” value is reported as “one or more improved mouse 6-hour PK properties compared to hinokitiol”. The “Caco2 shDMT1 transport FC @ 3 μM, 4h” value in data set [1] was 0.01-0.5. Moreover, in data set [2], the half-life was greater than 2 h and the microsomal CLint is less than 11.6 µL/min/mg. In data set [3], the half-life was greater than 2 h and the microsomal CLint was less than 11.6 µL/min/mg. Further, the “Liposome Fe transport kefflux at 10 10 μM” value in data set [4] is 7.5-10.
